28 compounds from paper PMC7802075 (ACS Infectious Diseases, 2020) can be followed below.

The assay has as its target T1, LmjIPCS (inositol phosphorylceramide synthase from L. major) (Leishmania major, UniProt E9AFX2).
T1 sequence (E9AFX2 1-338): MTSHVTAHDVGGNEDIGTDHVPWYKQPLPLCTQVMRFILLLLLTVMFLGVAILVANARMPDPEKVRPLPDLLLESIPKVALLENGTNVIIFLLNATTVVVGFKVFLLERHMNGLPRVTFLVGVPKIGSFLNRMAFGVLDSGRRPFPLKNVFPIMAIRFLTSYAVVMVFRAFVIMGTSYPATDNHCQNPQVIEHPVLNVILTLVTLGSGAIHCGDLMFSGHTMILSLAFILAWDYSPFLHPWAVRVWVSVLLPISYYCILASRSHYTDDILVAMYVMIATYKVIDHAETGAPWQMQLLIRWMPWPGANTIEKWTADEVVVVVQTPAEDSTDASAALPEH
As to the kind of experiment: biochemical. The class given is biochemical. Details: inhibition: dose or concentration left out as unconfirmed. To be noted: for inhibition at 20000 µM: read-out: 20mM inhibition LmjIPCS; for inhibition: read-out: inhibition LmjIPCS.

By inhibition is commonly meant the relative decrease from the control value, in per cent.

Like-named read-outs stand apart in the source and are kept apart here.

With `CC(C)NCC(O)c1cc(O)cc(O)c1` (stereo not shown) [METAPROTERENOL], the inhibition at 20000 µM worked out at 7%.

Turning to `COC(=O)[C@H](c1ccccc1Cl)N1CCc2sccc2C1` [CLOPIDOGREL], the inhibition at 20000 µM turned out to be 32%.

With `O=C(/C=C/c1ccc(O)cc1)c1ccc(O)cc1O` [ISOLIQUIRITIGENIN], the inhibition came out at 11%.

In the case of `CN(C)[C@@H]1C(O)=C(C(N)=O)C(=O)[C@@]2(O)C(O)=C3C(=O)c4c(O)ccc(Cl)c4[C@@H](O)[C@H]3C[C@@H]12` [DEMECLOCYCLINE], the inhibition at 20000 µM was -2%.

Consider `Cn1cc[nH]c1=S` [METHIMAZOLE], for which the inhibition (NINDS set screen) was 13%.

Take `CCCCCC1C(=O)CCC1CC(=O)OC` (stereo not shown) [DIHYDROJASMONIC ACID, METHYL ESTER]: the inhibition at 20000 µM was -2%.

`O=C1c2ccc(O)c(O)c2C(=O)c2c(O)ccc(O)c21` [QUINALIZARIN]: for the setting “NINDS set screen”, the inhibition was -2.7%.

For the compound `COC(=O)[C@]1(C)CC[C@]2(C)CC[C@]3(C)C4=CC=C5C(=CC(=O)C(O)=C5C)[C@]4(C)CC[C@@]3(C)[C@@H]2C1` [PRISTIMERIN], the “20mM inhibition LmjIPCS” value amounted to 62%.

Regarding `COc1ccc(C(=O)c2ccccc2O)c(O)c1` [DIOXYBENZONE], the inhibition was determined as 11%.

As for `COc1ccc(C(=O)CC(=O)c2ccc(C(C)(C)C)cc2)cc1` [AVOBENZONE], the inhibition at 20000 µM came to 0.941%.

As for `CC[C@@]1(O)C(=O)OCc2c1cc1n(c2=O)Cc2cc3ccccc3nc2-1` [CAMPTOTHECIN], the inhibition at 20000 µM stood at 1.2%.

As to `COc1ccc2c(c1)[nH]c1c(C)nccc12` [HARMINE], the inhibition at 20000 µM stood at 32%.

Take `CCOc1ccc(Cc2nccc3cc(OCC)c(OCC)cc23)cc1OCC` [ETHAVERINE]: where the note is “NINDS set screen”, the inhibition is -7%.

In the case of `Cc1ccc(-c2cc(C(F)(F)F)nn2-c2ccc(S(N)(=O)=O)cc2)cc1` [CELECOXIB], the “20mM inhibition LmjIPCS” value worked out at 51%.

As for `CCCCOc1ccc(C(=O)CCN2CCCCC2)cc1` [DYCLONINE], the “20mM inhibition LmjIPCS” value is 61%.

As for `Cc1c(N(C)CS(=O)(=O)[O-])c(=O)n(-c2ccccc2)n1C.[Na+]` [DIPYRONE], the “20mM inhibition LmjIPCS” value (NINDS set screen, single concentration 20mM as printed) is recorded as -7.57%.

For `CCN(CC)CCNC(=O)c1cc(S(C)(=O)=O)ccc1OC` [TIAPRIDE], under “NINDS set screen”, the inhibition is -5%.

In the case of `CC(=O)O.CNC(=N)NCCC[C@H](N)C(=O)O` [Ng-METHYL-L-ARGININE ACETATE], the “20mM inhibition LmjIPCS” value amounted to 0.168%.

With `N#Cc1c(Cl)c(Cl)c(Cl)c(C#N)c1Cl` [TETRACHLOROISOPHTHALONITRILE], the “20mM inhibition LmjIPCS” value (NINDS set screen, compound at 20mM (so in the source)) is given as 15%.

On to `CCN(CC)CCOC(=O)C(Cc1cccc2ccccc12)CC1CCCO1` (stereo not shown) [NAFRONYL], for which the “20mM inhibition LmjIPCS” value is recorded as 46%.

Take `CN(C)CCOC(C)(c1ccccc1)c1ccccn1` (stereo not shown) [DOXYLAMINE]: the inhibition is 9%.

`C[C@H]1C[C@@H]2[C@H]([C@@H](O)C[C@@]3(C)[C@H]2CC[C@]3(O)C(=O)CO)[C@@]2(C)C=CC(=O)C=C12` [METHYLPREDNISOLONE]: the inhibition (NINDS set screen) was 16%.

For `CCCCOc1cc(C(=O)NCCN(CC)CC)c2ccccc2n1` [DIBUCAINE], the “20mM inhibition LmjIPCS” value came to 63%.

For the compound `CO[C@H]1/C=C/O[C@@]2(C)Oc3c(C)c(O)c4c(O)c(c5c(nc6cc(C)ccn65)c4c3C2=O)NC(=O)/C(C)=C\C=C\[C@H](C)[C@H](O)[C@@H](C)[C@@H](O)[C@@H](C)[C@H](OC(C)=O)[C@@H]1C` [RIFAXIMIN], the inhibition at 20000 µM came to 6%.

As for `CN(C)[C@@H]1C(O)=C(C(N)=O)C(=O)[C@@]2(O)C(O)=C3C(=O)c4c(O)ccc(Cl)c4[C@@](C)(O)[C@H]3C[C@@H]12` [CHLORTETRACYCLINE], the “20mM inhibition LmjIPCS” value is listed as 56%.

With `NC1(C(=O)O)CC1` [AMINOCYCLOPROPANECARBOXYLIC ACID], the “20mM inhibition LmjIPCS” value (single concentration 20mM as printed, screening of NINDS set, sheet Screen 1) is listed as 9%.

As for COLISTIMETHATE, the “20mM inhibition LmjIPCS” value (NINDS set screen, single concentration printed as 20mM) came out at 56%.

`O=C1C=CC(=C(c2ccc(O)cc2)c2ccc(O)cc2)C=C1` [ROSOLIC ACID]: the inhibition at 20000 µM is -11%.
